Reference: patent publication US11219625B2, “Inhibitors of N-linked glycosylation and methods using same” (YALE UNIVERSITY, priority 2015, dated 2022)

Experiments:
Format in all cases: cell-based
A549 cells = experiment: Cell cycle distribution by flow cytometry, A549; settings: A549, NGI-1 24 h
Description: (§1) FIGS. 5A-5G illustrate NGI-1 induces G1 arrest and senescence in EGFR addicted tumor cells. FIG. 5A illustrates cell cycle distribution of PC9 cells after 24 h NGI-1 treatment for 24 h determined by flow cytometry. […] FIG. 5B illustrates cell cycle distribution of A549 cells after 24 h NGI-1 treatment for 24 h determined by flow cytometry. FIG. 5C illustrates western blot time course of cyclin D1 expression in PC9 and A549 cells after NGI-1 treatment. FIG. 5D illustrates quantitative real-time PCR analysis of PC9 and A549 cells. A time course of cyclin D1 expression levels relative to GAPDH is represented. […] FIG. 5F illustrates senescence of PC9 cells explored by: cell autofluorescence, measured by flow cytometry using a detector for PE/YFP; lipofuscin accumulation, detected by confocal laser scanning microscopy using an excitation laser of 405 nm with acquired signals from spectrums of yellow 575-620 nm; and morphology changes, enlarged vs. flattened. […] Significance was calculated using a T test (*p<0.05. **p<0.01). FIG. 5G illustrates senescence of A549 cells explored by: cell autofluorescence, measured by flow cytometry using a detector for PE/YFP; lipofuscin accumulation, detected by confocal laser scanning microscopy using an excitation laser of 405 nm with acquired signals from spectrums of yellow 575-620 nm; and morphology changes, enlarged vs. flattened. […]

PC9 cells [1] = experiment: Assessment of senescence, autofluorescence by flow cytometry, PC9; settings: PC9, NGI-1 treatment for 5 days
Description: as §1

PC9 cells [2] = experiment: Apoptosis by flow cytometry (Annexin-V, 7-AAD), PC9; settings: PC9, NGI-1 10 μM for 2 or 5 days, or Tn 1 μM
Description: Analysis of apoptosis susceptibility in A549 and PC9 NSCLC cell lines followed treatment with NGI-1 10 μM or Tn 1 μM for 2 days was done by flow cytometry after staining the cells with Annexin-V (early apoptosis) and 7-AAD (viability dye). […] FIG. 9C: Western blot of BIP protein for A549 and PC9 cells after treatment with 10 μM NGI-1 for 6, 12 or 24 h. The expression of GAPDH was used as a loading control.

HCC827 cells = experiment: MTT proliferation assay, HCC827; settings: HCC827, 10 μM NGI-1, 5 d, p<0.05
Description: FIGS. 7A-7D illustrate EGFR kinase domain mutant cell lines growth inhibition and cell cycle arrest response to NGI-1. FIG. 7A illustrates MTT assays to determine the effects of NGI-1 on growth of H3255 cells. FIG. 7B illustrates MIT assays to determine the effects of NGI-1 on growth of HCC827 cells. EGFR kinase domain mutant cell lines H3255 and HCC827 cells were untreated or treated with 10 μM NGI-1 for 5 d. […] FIG. 7C illustrates cell cycle distribution of H3255 after 24 h NGI-1 treatment for 24 h determined by flow cytometry. FIG. 7D illustrates cell cycle distribution of HCC827 after 24 h NGI-1 treatment for 24 h determined by flow cytometry.
Growth rates were determined by CellTiter 96 NonRadioactive Cell Proliferation Assay (Promega; Madison, Wis. USA) according to the manufacturer's directions. Briefly, NSCLC cells (2×10^3) untreated or treated with […] NGI-1 or 1 μM Tn, were seeded in triplicates in 96-wells plates and grown in culture medium containing […]. Cell numbers were estimated after 0, 3, and 5 days by adding MTT [(3-(4,5-Dimethylthiazol-2-yl)-2,5-diphenyltetrazolium bromide] reagent to the wells 4 hours before taking the spectrophotometric reading (absorbance at 570 nm).

For `Cc1cnc(NC(=O)c2cc(S(=O)(=O)N(C)C)ccc2N2CCCC2)s1` [NGI-1, 5-(N,N-Dimethylsulfamoyl)-N-(5-methylthiazol-2-yl)-2-(pyrrolidin-1-yl)benzamide], which cell cycle distribution (A549 cells) is on record?
Its cell cycle distribution is “did not significantly change the cell cycle distribution”.

What about the “increase of autofluorescence by flow cytometry” value (PC9 cells [1]) of the same molecule?
The value was < 60%.

What about the induction of apoptosis (PC9 cells [2]) of the same molecule?
Its induction of apoptosis is “did not induce apoptosis”.

And the “reduction of proliferation, MTT” value (HCC827 cells)?
Its value is > 45%.
